Assay results taken from publication PMC2798750, “Caenorhabditis elegans N-glycan Core β-galactoside Confers Sensitivity towards Nematotoxic Fungal Galectin CGL2” (PLoS Pathogens, 2010).

Biological target: CGL2 (Coprinopsis cinerea, UniProt Q9P4R8)
Assay: biochemical

Chain of CGL2 (Q9P4R8 whole entry, looked up): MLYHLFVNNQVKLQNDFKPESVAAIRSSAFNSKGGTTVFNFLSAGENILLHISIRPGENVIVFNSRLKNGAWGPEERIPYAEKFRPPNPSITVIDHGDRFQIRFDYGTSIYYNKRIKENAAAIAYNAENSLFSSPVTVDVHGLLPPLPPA

**Q.** Which Kd does the source give for `CC(=O)N[C@H]1[C@H](OCCCCCN)O[C@H](CO[C@@H]2O[C@@H](C)[C@@H](O[C@@H]3O[C@H](CO)[C@H](O)[C@H](O)[C@H]3O)[C@@H](O)[C@@H]2O)[C@@H](O)[C@@H]1O` [Galβ1,4Fucα1,6GlcNAcβOC5H10NH2] here?
**A.** Its Kd is ~100 µM.
